How the values were obtained:
Assay type in all cases: biochemical
[1] = molecular target: JAK2 (Homo sapiens (Human), UniProt O60674); experiment: Purified kinase assay (Z'-LYTE), JAK2; details: Table 1; read-out: JAK2 IC50
Experimental: (§1) JAK and TYK2 tyrosine phosphorylation activity is measured using the Z′-LYTE™ Technology developed by Invitrogen Corporation (Carlsbad, Calif.). For JAK1, JAK2 and JAK3 the Z′-LYTE™ Kinase Assay Kit-Tyr6 Peptide (part number PV4122) was used. For TYK2 the Z′-LYTE™ Kinase Assay Kit-Tyr6 Peptide (part number PV3192) was used. The Z′-LYTE™ biochemical assay employs a fluorescence resonance energy transfer (FRET) coupled-enzyme format and is based on the differential sensitivity of phosphorylated and non-phosphorylated peptides to proteolytic cleavage. The assay uses a synthetic peptide substrate that is labeled with a donor fluorophore (coumarin) and an acceptor fluorophore (fluorescein) that make up a FRET pair. In the primary reaction (the Kinase Reaction), the kinase transfers the γ-phosphate of ATP to a single tyrosine residue on the substrate, while the presence of a kinase inhibitor in the primary reaction suppresses phosphorylation. In the secondary reaction (the Development Reaction), a site-specific protease (the Development Reagent) is added. The development buffer quenches the Kinase Reaction, while the protease recognizes and cleaves non-phosphorylated Z′-LYTE™ peptide substrate. Cleavage disrupts FRET between the donor and acceptor fluorophores on the non-phosphorylated substrate, while uncleaved, phosphorylated substrate maintains FRET.
(§2) To test the ability of candidate molecules to inhibit JAK tyrosine phosphorylation activity, molecules are reconstituted in 100% DMSO and serially diluted 1:10 in polypropylene v-bottom microtiter plates. The candidate molecules are then diluted 1:25 into kinase buffer and 2.5 μl transferred into duplicate wells of a 384 well low volume black microtiter assay plate (Corning, USA). The final DMSO concentration in the assay is 1%. The kinase reaction contains 2.5 μl of a candidate molecule, 5 μl of catalytic domain recombinant Kinase enzyme+Tyr peptide substrate (Invitrogen, CA) and ATP (Invitrogen, CA). The kinase reaction is allowed to proceed for 1 hour at room temperature. The protease reaction is initiated by the addition of Development Reagent (Invitrogen, CA). After 1 hour incubation at room temperature the fluorescence is measured using a FlexStation plate reader (Molecular Devices, Sunnyvale, Calif.). The reader settings used are as follows: Fluorescence mode, endpoint, top read, excitation 400 nm, emission 445 nm and 520 nm, Auto Cutoff 435 nm and 515 nm, PMT sensitivity high, 6 reads per well Inhibition of JAK activity is calculated as the percent phosphorylation of substrate in the presence of inhibitor compared to the percent phosphorylation of substrate in the absence of inhibitor. IC50's were derived using Xlfit 4.3 (IDBS, UK), 4 parameter logistic model 205: Y=(A+((B−A)/(1+((C/x)^D)))).

[2] = molecular target: JAK1 (Homo sapiens (Human), UniProt P23458); experiment: Purified kinase assay (Z'-LYTE), JAK1; details: Table 1; read-out: JAK1 IC50
Sequence of JAK1 (P23458 875-1153): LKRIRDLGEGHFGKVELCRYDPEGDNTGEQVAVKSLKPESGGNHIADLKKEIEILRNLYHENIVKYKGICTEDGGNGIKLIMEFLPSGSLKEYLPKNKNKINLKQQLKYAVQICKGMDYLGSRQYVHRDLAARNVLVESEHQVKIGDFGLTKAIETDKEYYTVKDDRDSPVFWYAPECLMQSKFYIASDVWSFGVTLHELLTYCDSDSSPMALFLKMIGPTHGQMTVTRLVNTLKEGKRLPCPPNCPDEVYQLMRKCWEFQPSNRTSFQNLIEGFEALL
Experimental: as §1, §2

[3] = molecular target: JAK3 (Homo sapiens (Human), UniProt P52333); experiment: Purified kinase assay (Z'-LYTE), JAK3; details: Table 1; read-out: JAK3 IC50
Sequence of JAK3 (P52333 822-1111): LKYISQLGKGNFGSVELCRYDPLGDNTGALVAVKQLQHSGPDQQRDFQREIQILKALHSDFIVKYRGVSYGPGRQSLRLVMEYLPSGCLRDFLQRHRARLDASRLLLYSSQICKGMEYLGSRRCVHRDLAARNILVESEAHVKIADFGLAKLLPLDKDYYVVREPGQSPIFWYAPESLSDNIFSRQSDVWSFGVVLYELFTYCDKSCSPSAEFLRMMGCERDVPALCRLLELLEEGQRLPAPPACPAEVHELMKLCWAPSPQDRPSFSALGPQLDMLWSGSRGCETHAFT
Experimental: as §1, §2

Sequence of JAK2 (O60674 849-1124): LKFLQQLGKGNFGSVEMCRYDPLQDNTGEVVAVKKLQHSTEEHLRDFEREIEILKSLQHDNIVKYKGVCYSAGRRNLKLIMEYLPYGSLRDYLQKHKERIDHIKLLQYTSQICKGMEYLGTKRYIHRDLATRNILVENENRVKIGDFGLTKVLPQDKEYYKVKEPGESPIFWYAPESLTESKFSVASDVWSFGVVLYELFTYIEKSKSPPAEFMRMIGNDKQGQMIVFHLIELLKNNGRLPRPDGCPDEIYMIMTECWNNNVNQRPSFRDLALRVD

SMILES | IC50 [1] [nM] | IC50 [2] [nM] | IC50 [3] [nM]
NC(=O)c1nnc(Nc2ccc(N3CCOCC3)cc2)cc1NC1CCC1 [Compound 6, 4-(cyclobutylamino)-6-((4-morpholinophenyl)amino)pyridazine-3-carboxamide] | 100 to 1000 | > 1000 | 100 to 1000
CC(=O)N1CCN(c2ccc(Nc3cc(NC4CCCCC4)c(C(N)=O)nn3)cc2)CC1 [Compound 8, 6-((4-(4-acetylpiperazin-1-yl)phenyl)amino)-4-(cyclohexylamino)pyridazine-3-carboxamide] | 100 to 1000 | 100 to 1000 | 10 to 100
CC(=O)N1CCN(c2ccc(Nc3cc(NCC(C)C)c(C(N)=O)nn3)cc2)CC1 [Compound 14] | 100 to 1000 | > 1000 | 100 to 1000
CC(C)CNc1cc(Nc2ccc(N3CCNCC3)cc2)nnc1C(N)=O [Compound 15] | > 1000 | > 1000 | 100 to 1000
CCC(=O)N1CCC(c2ccc(Nc3cc(NCc4ccccc4F)c(C(N)=O)nn3)cc2)CC1 [Compound 25] | > 1000 | > 1000 | 10 to 100
CCC(=O)N1CCC(c2ccc(Nc3cc(NCc4cc(F)cc(F)c4)c(C(N)=O)nn3)cc2)CC1 [Compound 27] | > 1000 | > 1000 | 10 to 100
CCC(=O)N1CCN(c2ccc(Nc3cc(NCc4cccc(F)c4)c(C(N)=O)nn3)cc2)CC1 [Compound 30] | 100 to 1000 | > 1000 | 10 to 100
CCC(=O)N1CCN(c2ccc(Nc3cc(NCc4cc(F)ccc4F)c(C(N)=O)nn3)cc2)CC1 [Compound 32] | 10 to 100 | > 1000 | 1 to 10
NC(=O)c1nnc(Nc2ccc(N3CCOCC3)cc2)cc1NCc1cccc(F)c1F [Compound 38] | 100 to 1000 | > 1000 | 10 to 100
NC(=O)c1nnc(Nc2ccc(N3CCOCC3)c(F)c2)cc1NCc1cccc(F)c1F [Compound 43] | > 1000 | > 1000 | 10 to 100
COC(=O)N(C)c1ccc(Nc2cc(NCc3cccc(F)c3F)c(C(N)=O)nn2)cc1 [Compound 45] | > 1000 | > 1000 | 10 to 100
CC(=O)N1CCN(c2ccc(Nc3cc(NCc4cccc(Cl)c4)c(C(N)=O)nn3)cc2)CC1 [Compound 46] | 100 to 1000 | 100 to 1000 | 10 to 100
CC(=O)N1CCN(c2ccc(Nc3cc(NCc4cccc(C)c4)c(C(N)=O)nn3)cc2)CC1 [Compound 47] | 100 to 1000 | > 1000 | 10 to 100
NC(=O)c1nnc(Nc2cccc(CN3CCOCC3)c2)cc1NCc1cccc(F)c1 [Compound 48] | 100 to 1000 | > 1000 | 10 to 100
CC(=O)N1CCN(c2ccc(Nc3cc(NCc4cccc(F)c4)c(C(N)=O)nn3)cn2)CC1 [Compound 49] | > 1000 | > 1000 | 100 to 1000
NC(=O)c1nnc(Nc2ccc(N3CCNCC3)nc2)cc1NCc1cccc(F)c1 [Compound 50] | > 1000 | > 1000 | 100 to 1000
NC(=O)c1nnc(Nc2ccc(C(=O)N3CCCC3)cc2)cc1NCc1cccc(F)c1 [Compound 52] | 100 to 1000 | > 1000 | 10 to 100
NC(=O)c1nnc(Nc2ccc(C(=O)N3CCCC3)c(Cl)c2)cc1NCc1cccc(F)c1 [Compound 55] | 100 to 1000 | > 1000 | 10 to 100
NC(=O)c1nnc(Nc2ccc(N3CCOCC3)cn2)cc1NCc1cccc(F)c1 [Compound 64] | 10 to 100 | > 1000 | 1 to 10

Further lines, results first:

IC50 [1] [nM] | IC50 [2] [nM] | IC50 [3] [nM] | SMILES
100 to 1000 | > 1000 | 100 to 1000 | CC(=O)Nc1cccc(Nc2cc(NC3CCC3)c(C(N)=O)nn2)c1 [Compound 7, 6-((3-acetamidophenyl)amino)-4-(cyclobutylamino)pyridazine-3-carboxamide]
> 1000 | > 1000 | > 1000 | CC(=O)N1CCN(c2ccc(Nc3cc(NC(C)C)c(C(N)=O)nn3)cc2)CC1 [Compound 9]
100 to 1000 | 100 to 1000 | 100 to 1000 | CC(=O)N1CCN(c2ccc(Nc3cc(NC4CCCC4)c(C(N)=O)nn3)cc2)CC1 [Compound 10]
100 to 1000 | > 1000 | 100 to 1000 | NC(=O)c1nnc(Nc2ccc(N3CCNCC3)cc2)cc1NC1CCCCC1 [Compound 11, 4-(cyclohexylamino)-6-((4-(piperazin-1-yl)phenyl)amino)pyridazine-3-carboxamide]
> 1000 | > 1000 | > 1000 | CC(C)Nc1cc(Nc2ccc(N3CCNCC3)cc2)nnc1C(N)=O [Compound 12]
100 to 1000 | > 1000 | 100 to 1000 | NC(=O)c1nnc(Nc2ccc(N3CCNCC3)cc2)cc1NC1CCCC1 [Compound 13]
100 to 1000 | > 1000 | 10 to 100 | CC(=O)N1CCN(c2ccc(Nc3cc(NCC4CCC4)c(C(N)=O)nn3)cc2)CC1 [Compound 16]
> 1000 | > 1000 | 100 to 1000 | NC(=O)c1nnc(Nc2ccc(N3CCNCC3)cc2)cc1NCC1CCC1 [Compound 17]
> 1000 | > 1000 | 10 to 100 | NC(=O)c1nnc(Nc2ccc(N3CCNCC3)cc2)cc1NCc1cccs1 [Compound 22]
10 to 100 | 100 to 1000 | 10 to 100 | COc1ccccc1CNc1cc(Nc2ccc(N3CCN(C(C)=O)CC3)cc2)nnc1C(N)=O [Compound 24]
> 1000 | > 1000 | 10 to 100 | CCC(=O)N1CCC(c2ccc(Nc3cc(NCc4cccc(F)c4)c(C(N)=O)nn3)cc2)CC1 [Compound 26]
10 to 100 | 100 to 1000 | 1 to 10 | CC(=O)N1CCN(c2ccc(Nc3cc(NCc4ccccc4F)c(C(N)=O)nn3)nc2)CC1 [Compound 28]
100 to 1000 | > 1000 | 1 to 10 | CCC(=O)N1CCN(c2ccc(Nc3cc(NCc4cc(F)cc(F)c4)c(C(N)=O)nn3)cc2)CC1 [Compound 31]
10 to 100 | > 1000 | 1 to 10 | CCC(=O)N1CCN(c2ccc(Nc3cc(NCc4cccc(F)c4F)c(C(N)=O)nn3)cc2)CC1 [Compound 34]
100 to 1000 | > 1000 | 10 to 100 | NC(=O)c1nnc(Nc2ccc(N3CCOCC3)cc2)cc1NCc1cccc(F)c1 [Compound 35]
100 to 1000 | > 1000 | 10 to 100 | NC(=O)c1nnc(Nc2ccc(N3CCOCC3)cc2)cc1NCc1cc(F)cc(F)c1 [Compound 36]
10 to 100 | > 1000 | 10 to 100 | NC(=O)c1nnc(Nc2ccc(N3CCOCC3)cc2)cc1NCc1cc(F)ccc1F [Compound 37]
10 to 100 | 100 to 1000 | 1 to 10 | NC(=O)c1nnc(Nc2ccc(N3CCOCC3)cc2)cc1NCc1c(F)cccc1F [Compound 39]
> 1000 | > 1000 | 10 to 100 | Cc1cc(Nc2cc(NCc3cccc(F)c3F)c(C(N)=O)nn2)ccc1N1CCOCC1 [Compound 40]
> 1000 | > 1000 | > 1000 | NC(=O)c1nnc(Nc2cc(F)c(N3CCOCC3)c(F)c2)cc1NCc1cccc(F)c1F [Compound 41]
> 1000 | > 1000 | 10 to 100 | CN(C(=O)C1CC1)c1ccc(Nc2cc(NCc3cccc(F)c3F)c(C(N)=O)nn2)cc1 [Compound 44]
100 to 1000 | > 1000 | 10 to 100 | NC(=O)c1nnc(Nc2ccc(OCCN3CCCC3)cc2)cc1NCc1cccc(F)c1 [Compound 51]
100 to 1000 | > 1000 | 10 to 100 | COc1cc(Nc2cc(NCc3cccc(F)c3)c(C(N)=O)nn2)ccc1C(=O)N1CCCC1 [Compound 53]
> 1000 | > 1000 | 10 to 100 | Cc1cc(Nc2cc(NCc3cccc(F)c3)c(C(N)=O)nn2)ccc1N1CCOCC1 [Compound 54]
> 1000 | > 1000 | > 1000 | NC(=O)c1nnc(Nc2cccc(N3CCOCC3)n2)cc1NCc1cccc(F)c1 [Compound 62]
> 1000 | > 1000 | 100 to 1000 | CC(=O)N1CCN(c2ccc(Nc3cc(NCC4CCNCC4)c(C(N)=O)nn3)cc2)CC1 [Compound 63]

From patent US9834548B2, “Pyridazine compounds as JAK inhibitors” (Portola Pharmaceuticals, Inc., priority 2014, dated 2017)
